Tests used:
[1] = target: JAK2 (recombinant purified GST-tagged catalytic domain) (Homo sapiens (Human), UniProt O60674); test: Jak Biochemical HTRF Assay (JAK2); conditions: [ATP] 8.5 μM
[2] = target: JAK1 (recombinant purified GST-tagged catalytic domain) (Homo sapiens (Human), UniProt P23458); test: Jak Biochemical HTRF Assay (JAK1); conditions: [ATP] 31.8 μM
Method in brief: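 Phosphorylation of a common biotinylated peptide by each catalytic domain is measured by HTRF. The ATP-started reaction runs 120 min at room temperature before EDTA quench and detection.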

Chain of JAK2 (recombinant purified GST-tagged catalytic domain) (O60674 849-1124): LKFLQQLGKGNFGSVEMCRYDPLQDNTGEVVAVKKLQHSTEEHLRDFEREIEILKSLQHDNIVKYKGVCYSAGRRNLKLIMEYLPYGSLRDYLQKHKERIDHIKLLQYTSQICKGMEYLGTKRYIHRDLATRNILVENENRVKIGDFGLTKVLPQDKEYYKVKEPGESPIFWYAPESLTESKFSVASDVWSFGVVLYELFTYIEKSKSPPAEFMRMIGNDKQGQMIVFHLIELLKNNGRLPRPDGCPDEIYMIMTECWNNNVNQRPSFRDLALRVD
Chain of JAK1 (recombinant purified GST-tagged catalytic domain) (P23458 875-1153): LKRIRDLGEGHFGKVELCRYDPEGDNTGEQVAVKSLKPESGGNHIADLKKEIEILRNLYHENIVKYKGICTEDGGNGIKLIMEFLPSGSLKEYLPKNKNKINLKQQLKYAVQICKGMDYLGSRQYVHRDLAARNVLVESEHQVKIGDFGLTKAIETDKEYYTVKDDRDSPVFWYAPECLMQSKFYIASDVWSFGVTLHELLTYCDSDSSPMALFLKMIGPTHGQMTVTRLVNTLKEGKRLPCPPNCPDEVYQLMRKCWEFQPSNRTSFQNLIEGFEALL

| IC50 [1] [nM] | IC50 [2] [nM] | Compound |
| --- | --- | --- |
| 1.94 | 0.08 | CC(C)(C)NC(=O)[C@@H]1CC[C@@](CC#N)(n2nc(Nc3ccc4c(c3)CN(C(C)(C)C)S4(=O)=O)c3c(=O)[nH]ccc32)CO1 [Example 19-1, (2S,5S)-N-(tert-butyl)-5-(3-((2-(tert-butyl)-1,1-dioxido-2,3-dihydrobenzo[d]isothiazol-5-yl)amino)-4-oxo-4,5-dihydro-1H-pyrazolo[4,3-c]pyridin-1-yl)-5-(cyanomethyl)tetrahydro-2H-pyran-2-carboxamide] |
| 0.51 | 0.09 | CN(C)S(=O)(=O)c1ccc(Nc2nn(C3(CC#N)CCN(C(=O)C4CC(F)(F)C4)CC3)c3cc[nH]c(=O)c23)cc1 [Example 9-7, 4-[(1-{4-(cyanomethyl)-1-[(3,3-difluorocyclobutyl)carbonyl]piperidin-4-yl}-4-oxo-4,5-dihydro-1H-pyrazolo[4,3-c]pyridin-3-yl)amino]-N,N-dimethylbenzenesulfonamide] |
| 0.51 | 0.28 | CCN(CC(F)(F)F)C(=O)c1ccc(Nc2nn([C@]3(CC#N)CC[C@@H](C(=O)OC(C)(C)C)OC3)c3cc[nH]c(=O)c23)cc1C [Example 20-14, (2S,5S)-tert-butyl 5-(cyanomethyl)-5-(3-((4-(ethyl(2,2,2-trifluoroethyl)carbamoyl)-3-methylphenyl)amino)-4-oxo-4,5-dihydro-1H-pyrazolo[4,3-c]pyridin-1-yl)tetrahydro-2H-pyran-2-carboxylate] |
| 3.82 | 1.15 | N#CCC1(n2nc(Nc3ccc([C@H](O)C(F)(F)F)cc3)c3c(=O)[nH]ccc32)CCN(c2cc(C(F)(F)F)ccn2)CC1 (single isomer, unassigned) [Example 16-3, (R or S)-2-(4-(4-Oxo-3-(4-(2,2,2-trifluoro-1-hydroxyethyl)phenylamino)-4,5-dihydropyrazolo[4,3-c]pyridin-1-yl)-1-(4-(trifluoromethyl)pyridin-2-yl)piperidin-4-yl)acetonitrile] |
| 0.31 | 0.08 | CN(C)S(=O)(=O)c1ccc(Nc2nn(C3(CC#N)CCN(C(=O)CC(F)(F)F)CC3)c3cc[nH]c(=O)c23)cc1 [Example 9-2, 4-({1-[4-(cyanomethyl)-1-(3,3,3-trifluoropropanoyl)piperidin-4-yl]-4-oxo-4,5-dihydro-1H-pyrazolo[4,3-c]pyridin-3-yl}amino)-N,N-dimethylbenzenesulfonamide] |
| 1.37 | 0.41 | CC(OC(=O)N1CCC(CC#N)(n2nc(Nc3ccc(S(=O)(=O)N(C)C)cc3)c3c(=O)[nH]ccc32)CC1)c1ccccn1 (centres unmarked) [Example 11-9, 1-(pyridin-2-yl)ethyl 4-(cyanomethyl)-4-(3-((4-(N,N-dimethylsulfamoyl)phenyl)amino)-4-oxo-4,5-dihydro-1H-pyrazolo[4,3-c]pyridin-1-yl)piperidine-1-carboxylate] |

More lines, now with the values behind:

| Compound | IC50 [1] [nM] | IC50 [2] [nM] |
| --- | --- | --- |
| CC(C)(C)OC(=O)N1CCC(CC#N)(n2nc(Nc3ccc([C@H](O)C(F)(F)F)cc3)c3c(=O)[nH]ccc32)CC1 (single isomer, unassigned) [Example 5-2, tert-butyl 4-(cyanomethyl)-4-[4-oxo-3-({4-[(1S or 1R)-2,2,2-trifluoro-1-hydroxyethyl]phenyl}amino)-4,5-dihydro-1H-pyrazolo[4,3-c]pyridin-1-yl]piperidine-1-carboxylate] | 0.44 | 0.21 |
| CN(C)S(=O)(=O)c1ccc(Nc2nn(C3(CC#N)CCN(Cc4ccc(C(F)(F)F)cc4)CC3)c3cc[nH]c(=O)c23)cc1 [Example 8-3, 4-[(1-{4-(cyanomethyl)-1-[4-(trifluoromethyl)benzyl]piperidin-4-yl}-4-oxo-4,5-dihydro-1H-pyrazolo[4,3-c]pyridin-3-yl)amino]-N,N-dimethylbenzenesulfonamide] | 8.62 | 2.32 |
| Cc1cc(Nc2nn([C@@]3(CC#N)CCCC[C@H]3F)c3cc[nH]c(=O)c23)ccc1C(=O)N1CCC(F)(F)CC1 [Example 5-153, 2-((1R,2R)-1-(3-((4-(4,4-difluoropiperidine-1-carbonyl)-3-methylphenyl)amino)-4-oxo-4,5-dihydro-1H-pyrazolo[4,3-c]pyridin-1-yl)-2-fluorocyclohexyl) acetonitrile] | 0.08 | 0.09 |
| CC(c1ccc(Nc2nn([C@]3(CC#N)CCCOC3)c3cc[nH]c(=O)c23)cc1)N1CCCC1 (single isomer, unassigned) [Example 5-200, {(3S)-3-[4-oxo-3-({4-[(1S or 1R)-1-pyrrolidin-1-ylethyl]phenyl}amino)-4,5-dihydro-1H-pyrazolo[4,3-c]pyridin-1-yl]tetrahydro-2H-pyran-3-yl}acetonitrile] | 0.53 | 1.15 |
| C[C@H]1CN(c2ccc3cc(Nc4nn([C@]5(CC#N)CC[C@@H](C(=O)OC(C)(C)C)OC5)c5cc[nH]c(=O)c45)ccc3n2)CCO1 [Example 5-228, (2S,5S)-tert-butyl 5-(cyanomethyl)-5-(3-((2-((S)-2-methylmorpholino)quinolin-6-yl)amino)-4-oxo-4,5-dihydro-1H-pyrazolo[4,3-c]pyridin-1-yl)tetrahydro-2H-pyran-2-carboxylate] | 1.06 | 0.25 |
| CC(C)(O)[C@@H]1CC[C@@](CC#N)(n2nc(Nc3ccc(Cl)cc3)c3c(=O)[nH]ccc32)CO1 [Example 24, 2-((3S,6S)-3-(3-((4-chlorophenyl)amino)-4-oxo-4,5-dihydro-1H-pyrazolo[4,3-c]pyridin-1-yl)-6-(2-hydroxypropan-2-yl)tetrahydro-2H-pyran-3-yl)acetonitrile] | 1.13 | 0.34 |
| CCN(C(C)(C)C)S(=O)(=O)c1ccc(Nc2nn(C3(CC#N)CCCC3)c3cc[nH]c(=O)c23)cc1 [Example 5-135, N-(tert-butyl)-4-((1-(1-(cyanomethyl)cyclopentyl)-4-oxo-4,5-dihydro-1H-pyrazolo[4,3-c]pyridin-3-yl)amino)-N-ethylbenzene sulfonamide] | 1.53 | 0.98 |
| CC(C)(C)OC(=O)[C@@H]1CC[C@@](CC#N)(n2nc(Nc3ccc4nc(C(N)=O)ccc4c3)c3c(=O)[nH]ccc32)CO1 [Example 5-223, (2S,5S)-tert-butyl 5-(3-((2-carbamoylquinolin-6-yl)amino)-4-oxo-4,5-dihydro-1H-pyrazolo[4,3-c]pyridin-1-yl)-5-(cyanomethyl)tetrahydro-2H-pyran-2-carboxylate] | 0.82 | 0.07 |
| CCNC(c1ccc(Nc2nn([C@@]3(CC#N)CCCC[C@H]3F)c3cc[nH]c(=O)c23)cc1)C(F)(F)F (single isomer, unassigned) [Example 5-173, {(1R,2R)-1-[3-({4-[(1R or 1S)-1-(ethylamino)-2,2,2-trifluoroethyl]phenyl}amino)-4-oxo-4,5-dihydro-1H-pyrazolo [4,3-c]pyridin-1-yl]-2-fluorocyclohexyl} acetonitrile] | 0.07 | 0.07 |
| N#CC[C@@]1(n2nc(Nc3ccc(C#N)cc3)c3c(=O)[nH]ccc32)CCOC1 (single isomer, unassigned) [Example 5-239, 4-({1-[(3R or 3S)-3-(cyanomethyl)tetrahydrofuran-3-yl]-4-oxo-4,5-dihydro-1H-pyrazolo[4,3-c]pyridin-3-yl}amino)benzonitrile] | 16.7 | 2.29 |
| N#CC[C@@]1(n2nc(Nc3ccc4c(c3)CN(C3CCN(CC(F)(F)F)CC3)S4(=O)=O)c3c(=O)[nH]ccc32)CCOC[C@@H]1F (single isomer, unassigned) [Example 5-277, 2-((3R,4R or 3S,4S)-4-(3-((1,1-dioxido-2-(1-(2,2,2-trifluoroethyl)piperidin-4-yl)-2,3-dihydrobenzo[d]isothiazol-5-yl)amino)-4-oxo-4,5-dihydro-1H-pyrazolo[4,3-c]pyridin-1-yl)-3-fluorotetrahydro-2H-pyran-4-yl)acetonitrile] | 0.05 | 0.05 |
| N#CCC1(n2nc(Nc3ccc(C(N)C(F)(F)F)cc3)c3c(=O)[nH]ccc32)CCCC1 (single isomer, unassigned) [Example 5-89, (R or S)-2-(1-(3-((4-(1-amino-2,2,2-trifluoroethyl)phenyl)amino)-4-oxo-4,5-dihydro-1H-pyrazolo[4,3-c]pyridin-1-yl)cyclopentyl)acetonitrile] | 1.74 | 0.5 |
| CC(C)S(=O)(=O)c1ccc(Nc2nn(C3(CC#N)CCN(C(=O)C(C)(F)F)CC3)c3cc[nH]c(=O)c23)cc1 [Example 5-57, 2-(1-(2,2-difluoropropanoyl)-4-(3-((4-(isopropylsulfonyl)phenyl)amino)-4-oxo-4,5-dihydro-1H-pyrazolo[4,3-c]pyridin-1-yl)piperidin-4-yl)acetonitrile] | 0.13 | 0.08 |
| CC(C)(C)N[C@@H](c1ccc(Nc2nn([C@@]3(CC#N)CCOC[C@H]3F)c3cc[nH]c(=O)c23)cc1)C(F)(F)F (single isomer, unassigned) [Example 5-268, 2-((3S,4S or 3R,4R)-4-(3-((4-((S or R)-1-(tert-butylamino)-2,2,2-trifluoroethyl)phenyl)amino)-4-oxo-4,5-dihydro-1H-pyrazolo[4,3-c]pyridin-1-yl)-3-fluorotetrahydro-2H-pyran-4-yl)acetonitrile] | 4.78 | 2.63 |
| COC(=O)N1CCC(CC#N)(n2nc(Nc3ccc4c(c3)CN(C(C)(C)C)S4(=O)=O)c3c(=O)[nH]ccc32)CC1 [Example 5-71, methyl 4-{3-[(2-tert-butyl-1,1-dioxo-2,3-dihydro-1,2-benzothiazol-5-yl)amino]-4-oxo-1H,4H,5H-pyrazolo [4,3-c]pyridin-1-yl}-4-(cyanomethyl)piperidine-1-carboxylate] | 0.15 | 0.08 |
| CCC(C)(C)S(=O)(=O)c1ccc(Nc2nn([C@]3(CC#N)CCCOC3)c3cc[nH]c(=O)c23)cc1 [Example 5-196, {(3S)-3-[3-({4-[(1,1-dimethylpropyl)sulfonyl]phenyl}amino)-4-oxo-4,5-dihydro-1H-pyrazolo[4,3-c]pyridin-1-yl]tetrahydro-2H-pyran-3-yl}acetonitrile] | 0.33 | 0.15 |

Source: patent publication US9957264B2 (Merck Sharp & Dohme Corp., priority 2013, dated 2018)
